Laboratory results: US9802899B2, “Heterocyclic compounds as pesticides” (BAYER CROPSCIENCE AG, priority 2012, dated 2017)

Test: Determination of the log P values by HPLC (formic acid method)
Format: physicochemical
Settings: reversed-phase column (C 18), acidic range (pH 3.4), 55° C.
Method: 1) Description of Method for Determination of the Log P Values (Formic Acid Method)
Eluents for determination in the acidic range (pH 3.4):
Eluent A: acetonitrile+1 ml of formic acid/liter. Eluent B: water+0.9 ml of formic acid/liter.
The lambda max values were determined in the maxima of the chromatographic signals using the UV spectra from 200 nm to 400 nm.

SMILES	log P	chromatographic logP (reversed-phase HPLC column (C 18))
Cc1cn(-c2ccccc2Cl)nc1NC(=O)c1ccccc1Br [Compound I-1-354]	2.86	–
Nc1cc(NC(=O)c2ccccc2Br)nn1-c1ccccc1Cl [Compound I-1-355]	1.94	–
Cc1cc(NC(=O)c2ccccc2Br)nn1-c1ccccc1Cl [Compound I-1-356]	2.45	–
Cc1cn(-c2ccccc2Cl)nc1NC(=O)c1cccnc1Br [Compound I-1-357]	2.23	–
O=C(Nc1ccn(-c2ccccc2Cl)n1)c1cccnc1Br [Compound I-1-358]	2.22	–
Cc1cc(NC(=O)c2cccnc2Br)nn1-c1ccccc1Cl [Compound I-1-359]	1.85	–
Cc1cn(-c2ccccc2Cl)nc1NC(=O)c1ccccc1Cl [Compound I-1-360]	2.80	–
Nc1cc(NC(=O)c2ccccc2Cl)nn1-c1ccccc1Cl [Compound I-1-361]	1.88	–
N#Cc1cn(-c2ccccc2Cl)nc1NC(=O)c1ccccc1Cl [Compound I-1-362]	2.37	–
O=C(Nc1ccn(-c2ccccc2Cl)n1)c1nccnc1Cl [Compound I-1-363]	2.45	–
O=C(Nc1ccn(-c2ccccc2Cl)n1)c1cccnc1F [Compound I-1-364]	2.38	–
Cc1cn(-c2ccccc2Cl)nc1NC(=O)c1ccccc1I [Compound I-1-365]	2.99	–
O=C(Nc1nn(-c2ccccc2Cl)cc1Br)c1ccccc1I [Compound I-1-366]	3.12	–
O=C(Nc1nn(-c2ccccc2Cl)cc1I)c1ccccc1I [Compound I-1-367]	3.18	–
N#Cc1cn(-c2ccccc2Cl)nc1NC(=O)c1ccccc1I [Compound I-1-368]	2.51	–
O=C(Nc1ccn(-c2ccccc2Cl)n1)c1cccnc1I [Compound I-1-369]	2.27	–
Cc1occc1C(=O)Nc1ccn(-c2ccccc2Cl)n1 [Compound I-1-370]	2.71	–
Cc1nc(C(F)(F)F)c(C(=O)Nc2ccn(-c3ccccc3Cl)n2)s1 [Compound I-1-371]	2.88	–
CC1=C(C(=O)Nc2ccn(-c3ccccc3Cl)n2)SCCO1 [Compound I-1-372]	2.75	–
CC(C)(C)c1ccccc1C(=O)Nc1ccn(-c2ccccc2Cl)n1 [Compound I-1-373]	3.85	–
O=C(Nc1ccn(-c2ccccc2Cl)n1)c1sccc1C(F)F [Compound I-1-374]	3.15	–
O=C(Nc1ccn(-c2ccccc2Cl)n1)c1sccc1C(F)(F)F [Compound I-1-375]	3.15	–
Cc1cc(NC(=O)c2ncccc2C(F)(F)F)nn1-c1ccccc1Cl [Compound I-1-376]	2.57	–
O=C(Nc1ccn(-c2ccccc2Cl)n1)c1sccc1Cl [Compound I-1-377]	3.29	–
O=C(Nc1ccn(-c2ccccc2Cl)n1)c1occc1I [Compound I-1-378]	2.96	–

SMILES	log P	chromatographic logP (reversed-phase HPLC column (C 18))
O=C(Nc1ccn(-c2ccccc2Cl)n1)c1sccc1I [Compound I-1-379]	3.34	–
Cc1cc(NC(=O)c2cnccc2C(F)(F)F)nn1-c1ccccc1Cl [Compound I-1-380]	2.09	–
O=C(Nc1ccn(-c2ccccc2Cl)n1)c1cnccc1Cl [Compound I-1-381]	2.19	–
Cc1nn(C)c(F)c1C(=O)Nc1ccn(-c2ccccc2Cl)n1 [Compound I-1-382]	2.15	–
Cn1nc(C(F)(F)F)c(C(=O)Nc2ccn(-c3ccccc3Cl)n2)c1F [Compound I-1-383]	2.86	–
O=C(Nc1ccn(-c2ccccc2Cl)n1)c1c(F)cccc1C(F)(F)F [Compound I-1-384]	3.05	–
O=C(Nc1ccn(-c2cnc(Cl)cn2)n1)c1ccccc1C(F)(F)F [Compound I-1-385]	2.94	–
O=C(Nc1ccn(-c2cnc(Cl)cn2)n1)c1cccnc1C(F)(F)F [Compound I-1-386]	2.45	–
O=C(Nc1ccn(-c2cnc(Cl)cn2)n1)c1c(F)cccc1F [Compound I-1-387]	2.67	–
O=C(Nc1ccn(-c2cnc(Cl)cn2)n1)c1ccccc1Br [Compound I-1-388]	2.84	–
O=C(Nc1ccn(-c2cnc(Cl)cn2)n1)c1ccccc1Cl [Compound I-1-389]	2.82	–
O=C(Nc1ccn(-c2cnc(Cl)cn2)n1)c1ccccc1I [Compound I-1-390]	2.96	–
O=C(Nc1ccn(-c2cccnc2Cl)n1)c1ccccc1C(F)(F)F [Compound I-1-391]	2.31	–
O=C(Nc1ccn(-c2cccnc2Cl)n1)c1ccccc1Cl [Compound I-1-392]	2.13	–
N#Cc1cc(F)cc(F)c1-n1ccc(NC(=O)c2ccccc2C(F)(F)F)n1 [Compound I-1-393, N-[1-(2-Cyano-4,6-difluorophenyl)-1H-pyrazol-3-yl]-2-(trifluoromethyl)benzamide]	–	2.65
N#Cc1ccccc1-n1ccc(NC(=O)c2ccccc2I)n1 [Compound I-1-394]	2.53	–
CCOc1c(Cl)cccc1-n1ccc(NC(=O)c2cccnc2C(F)(F)F)n1 [Compound I-1-395]	3.21	–
CCOc1c(F)cccc1-n1ccc(NC(=O)c2ccccc2Br)n1 [Compound I-1-396]	2.91	–
CCOc1c(F)cccc1-n1ccc(NC(=O)c2ccccc2Cl)n1 [Compound I-1-397]	2.74	–
CCOc1cccc(Cl)c1-n1ccc(NC(=O)c2ccccc2Br)n1 [Compound I-1-398]	3.03	–
CCOc1cccc(F)c1-n1ccc(NC(=O)c2ccccc2Br)n1 [Compound I-1-399]	2.87	–
O=C(Nc1ccn(-c2cncc(F)n2)n1)c1ccccc1C(F)(F)F [Compound I-1-401]	3.33	–
O=C(Nc1ccn(-c2cncc(F)n2)n1)c1cccnc1C(F)(F)F [Compound I-1-402]	2.76	–
O=C(Nc1ccn(-c2cncc(F)n2)n1)c1cccnc1Br [Compound I-1-404]	3.19	–
O=C(Nc1ccn(-c2cncc(F)n2)n1)c1ccccc1I [Compound I-1-405]	3.28	–

SMILES	log P	chromatographic logP (reversed-phase HPLC column (C 18))
COc1ccccc1-n1ccc(NC(=O)c2ccccc2C(F)(F)F)n1 [Compound I-1-406]	2.84	–
COc1ccccc1-n1ccc(NC(=O)c2cccnc2C(F)(F)F)n1 [Compound I-1-407]	2.37	–
COc1ccccc1-n1ccc(NC(=O)c2c(F)cccc2F)n1 [Compound I-1-408]	2.57	–
COc1ccccc1-n1ccc(NC(=O)c2cccnc2Br)n1 [Compound I-1-409]	2.12	–
COc1ccccc1-n1ccc(NC(=O)c2ccccc2Cl)n1 [Compound I-1-410]	2.70	–
COc1ccccc1-n1ccc(NC(=O)c2ccccc2I)n1 [Compound I-1-411]	2.83	–
O=C(Nc1ccn(-c2ccccc2[N+](=O)[O-])n1)c1ccccc1C(F)(F)F [Compound I-1-415]	2.63	–
O=C(Nc1ccn(-c2ccccc2[N+](=O)[O-])n1)c1cccnc1C(F)(F)F [Compound I-1-416]	2.16	–
O=C(Nc1ccn(-c2ccccc2[N+](=O)[O-])n1)c1c(F)cccc1F [Compound I-1-417]	2.34	–
O=C(Nc1ccn(-c2ccccc2[N+](=O)[O-])n1)c1ccccc1Br [Compound I-1-418]	2.50	–
O=C(Nc1ccn(-c2ccccc2[N+](=O)[O-])n1)c1ccccc1I [Compound I-1-419]	2.61	–
O=C(Nc1ccn(-c2ccccn2)n1)c1ccccc1Cl [Compound I-1-420]	2.33	–
O=C(Nc1ccn(-c2ncc(C(F)(F)F)cc2Cl)n1)c1ccccc1I [Compound I-1-421]	3.43	–
O=C(Nc1ccn(-c2ncccc2C(F)(F)F)n1)c1ccccc1C(F)(F)F [Compound I-1-422]	2.72	–
O=C(Nc1ccn(-c2ncccc2C(F)(F)F)n1)c1c(F)cccc1F [Compound I-1-423]	2.46	–
O=C(Nc1ccn(-c2ncccc2C(F)(F)F)n1)c1ccccc1Br [Compound I-1-424]	2.61	–
O=C(Nc1ccn(-c2ncccc2C(F)(F)F)n1)c1ccccc1Cl [Compound I-1-425]	2.57	–
O=C(Nc1ccn(-c2ncccc2C(F)(F)F)n1)c1cccnc1C(F)(F)F [Compound I-1-426]	2.69	–
O=C(Nc1ccn(-c2ncccc2C(F)(F)F)n1)c1ccccc1I [Compound I-1-427]	2.72	–
O=C(Nc1ccn(-c2ncc(Cl)cc2Cl)n1)c1c(F)cccc1F [Compound I-1-429]	2.77	–
O=C(Nc1ccn(-c2ncc(Cl)cc2Cl)n1)c1ccccc1Br [Compound I-1-430]	2.95	–
O=C(Nc1ccn(-c2ncc(Cl)cc2Cl)n1)c1cccnc1Br [Compound I-1-431]	2.29	–
O=C(Nc1ccn(-c2ncc(Cl)cc2Cl)n1)c1ccccc1Cl [Compound I-1-432]	2.91	–
O=C(Nc1ccn(-c2ncc(Cl)cc2Cl)n1)c1ccccc1I [Compound I-1-433]	3.06	–
O=C(Nc1ccn(-c2ncc(Cl)cc2Cl)n1)c1cccc(F)c1C(F)(F)F [Compound I-1-434]	2.61	–
